Reference: ChEMBL document CHEMBL1201862, “PubChem BioAssay data set” (2004)
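These data come from cells grown in 96-well plates and exposed to compound for 48 hours at five concentrations. The concentration for 50% growth inhibition is given as GI50.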 Active and inactive are the calls of the source. No stated cut-off is given here; in the data, active = GI50 up to about 1.1 µM and inactive = higher.

Columns and labels:
Assay in all cases: inhibition of tumour cell growth, NCI panel, 48 h
HL-60 = tested on: HL-60
NCI-H23 = tested on: NCI-H23
NCI-H226 = tested on: NCI-H226
COLO 205 = tested on: COLO 205
MCF7 = tested on: MCF7
HCC 2998 = tested on: HCC 2998
UACC-257 = tested on: UACC-257
SF-295 = tested on: SF-295
SNB-75 = tested on: SNB-75
BT-549 = tested on: BT-549
TK-10 = tested on: TK-10
A549 = tested on: A549
UACC-62 = tested on: UACC-62
786-0 = tested on: 786-0
DU-145 = tested on: DU-145
KM12 = tested on: KM12
T47D = tested on: T47D
NCI/ADR-RES = tested on: NCI/ADR-RES
LOX IMVI = tested on: LOX IMVI

O=C(/C=C/c1ccc(O)c(O)c1)OCCc1cccc2ccccc12
GI50 (HL-60): 1.38 µM (inactive)
GI50 (NCI-H23): 3.72 µM (inactive)
GI50 (NCI-H226): 22 µM (inactive)
GI50 (COLO 205): 5.69 µM (inactive)
GI50 (MCF7): 7.31 µM (inactive)
GI50 (HCC 2998): 11.1 µM (inactive)
GI50 (UACC-257): 11.1 µM (inactive)
GI50 (SF-295): 5.26 µM (inactive)
GI50 (SNB-75): 2.52 µM (inactive)
GI50 (BT-549): 7.85 µM (inactive)
GI50 (TK-10): 3.4 µM (inactive)
GI50 (A549): 4.54 µM (inactive)
GI50 (UACC-62): 4.27 µM (inactive)
GI50 (786-0): 3 µM (inactive)
GI50 (DU-145): 5.48 µM (inactive)
GI50 (KM12): 3.55 µM (inactive)
GI50 (T47D): 12.6 µM (inactive)
GI50 (NCI/ADR-RES): 6.15 µM (inactive)

O=C(c1ccc([N+](=O)[O-])cc1)N1CCCC1
GI50 (HL-60): > 100 µM (inactive)
GI50 (NCI-H23): > 100 µM (inactive)
GI50 (NCI-H226): > 100 µM (inactive)
GI50 (MCF7): > 100 µM (inactive)
GI50 (HCC 2998): > 100 µM (inactive)
GI50 (UACC-257): > 100 µM (inactive)
GI50 (LOX IMVI): > 100 µM (inactive)
GI50 (SF-295): > 100 µM (inactive)
GI50 (SNB-75): > 100 µM (inactive)
GI50 (BT-549): > 100 µM (inactive)
GI50 (TK-10): 86.1 µM (inactive)
GI50 (A549): > 100 µM (inactive)
GI50 (UACC-62): 66.1 µM (inactive)
GI50 (786-0): > 100 µM (inactive)
GI50 (DU-145): > 100 µM (inactive)
GI50 (KM12): > 100 µM (inactive)
GI50 (T47D): > 100 µM (inactive)
GI50 (NCI/ADR-RES): > 100 µM (inactive)

CCSC1=C(C#N)C2(CCCCC2)C2=C(O)CC(C)(C)CC2=N1
GI50 (HL-60): > 100 µM (inactive)
GI50 (NCI-H23): 32.4 µM (inactive)
GI50 (NCI-H226): 53.6 µM (inactive)
GI50 (COLO 205): > 100 µM (inactive)
GI50 (MCF7): 48.3 µM (inactive)
GI50 (HCC 2998): 1.01 µM (active)
GI50 (UACC-257): 5.96 µM (inactive)
GI50 (LOX IMVI): > 100 µM (inactive)
GI50 (SNB-75): 21.9 µM (inactive)
GI50 (BT-549): 14.2 µM (inactive)
GI50 (TK-10): 11.1 µM (inactive)
GI50 (A549): 34.4 µM (inactive)
GI50 (UACC-62): 25.6 µM (inactive)
GI50 (786-0): 31.8 µM (inactive)
GI50 (DU-145): 25.5 µM (inactive)
GI50 (KM12): > 100 µM (inactive)
GI50 (T47D): 86.1 µM (inactive)
GI50 (NCI/ADR-RES): 39.4 µM (inactive)

N=C(N)N/N=C/c1c(-c2ccc([N+](=O)[O-])cc2)nc2sccn12
GI50 (HL-60): 2.38 µM (inactive)
GI50 (NCI-H23): 1.71 µM (inactive)
GI50 (NCI-H226): 1.75 µM (inactive)
GI50 (COLO 205): 0.676 µM (active)
GI50 (MCF7): 1.42 µM (inactive)
GI50 (HCC 2998): 1.43 µM (inactive)
GI50 (UACC-257): 1.93 µM (inactive)
GI50 (LOX IMVI): 1.86 µM (inactive)
GI50 (SF-295): 1.39 µM (inactive)
GI50 (SNB-75): 1.8 µM (inactive)
GI50 (BT-549): 1.82 µM (inactive)
GI50 (TK-10): 1.82 µM (inactive)
GI50 (A549): 1.78 µM (inactive)
GI50 (UACC-62): 1.87 µM (inactive)
GI50 (786-0): 1.47 µM (inactive)
GI50 (DU-145): 1.82 µM (inactive)
GI50 (KM12): 0.759 µM (active)
GI50 (T47D): 1.74 µM (inactive)
GI50 (NCI/ADR-RES): > 100 µM (inactive)

COc1ccc(N[S+]([O-])c2ccc(OC)cc2)cc1 (stereo unspecified)
GI50 (HL-60): 41.2 µM (inactive)
GI50 (NCI-H23): > 100 µM (inactive)
GI50 (NCI-H226): 55.5 µM (inactive)
GI50 (COLO 205): 72.1 µM (inactive)
GI50 (MCF7): 31.6 µM (inactive)
GI50 (HCC 2998): 41.3 µM (inactive)
GI50 (UACC-257): 69 µM (inactive)
GI50 (LOX IMVI): 17.4 µM (inactive)
GI50 (SF-295): 24 µM (inactive)
GI50 (BT-549): 14.8 µM (inactive)
GI50 (TK-10): > 100 µM (inactive)
GI50 (A549): 33.6 µM (inactive)
GI50 (UACC-62): 14.6 µM (inactive)
GI50 (786-0): 84.9 µM (inactive)
GI50 (DU-145): 64.9 µM (inactive)
GI50 (KM12): 7.8 µM (inactive)
GI50 (T47D): 15.5 µM (inactive)
GI50 (NCI/ADR-RES): 56.6 µM (inactive)

O=C(CC(O)(C(F)(F)F)C(F)(F)F)c1cccs1
GI50 (HL-60): > 10 µM (inactive)
GI50 (NCI-H23): > 10 µM (inactive)
GI50 (COLO 205): > 10 µM (inactive)
GI50 (MCF7): > 10 µM (inactive)
GI50 (HCC 2998): > 10 µM (inactive)
GI50 (UACC-257): > 10 µM (inactive)
GI50 (LOX IMVI): > 10 µM (inactive)
GI50 (SF-295): > 10 µM (inactive)
GI50 (SNB-75): > 10 µM (inactive)
GI50 (BT-549): > 10 µM (inactive)
GI50 (TK-10): > 10 µM (inactive)
GI50 (A549): > 10 µM (inactive)
GI50 (UACC-62): > 10 µM (inactive)
GI50 (786-0): > 10 µM (inactive)
GI50 (DU-145): > 10 µM (inactive)
GI50 (KM12): > 10 µM (inactive)
GI50 (T47D): > 10 µM (inactive)
GI50 (NCI/ADR-RES): > 10 µM (inactive)

CCCCCCCC1c2cc3nc(cc4[nH]c(cc5nc(cc([nH]2)[C@@]1(C)CC(=O)N(C)C)C(C)=C5CCC(=O)O)c(CCC(=O)O)c4C)C=C3C (stereo partly specified)
GI50 (HL-60): 23.7 µM (inactive)
GI50 (NCI-H23): 18.5 µM (inactive)
GI50 (COLO 205): 16.7 µM (inactive)
GI50 (MCF7): 32.1 µM (inactive)
GI50 (HCC 2998): 20 µM (inactive)
GI50 (UACC-257): 17.3 µM (inactive)
GI50 (LOX IMVI): 17.6 µM (inactive)
GI50 (SF-295): 18.9 µM (inactive)
GI50 (SNB-75): 18.7 µM (inactive)
GI50 (BT-549): 14.9 µM (inactive)
GI50 (TK-10): 37.2 µM (inactive)
GI50 (A549): 50.2 µM (inactive)
GI50 (UACC-62): 18.5 µM (inactive)
GI50 (786-0): 29.5 µM (inactive)
GI50 (DU-145): 21.4 µM (inactive)
GI50 (KM12): 24.9 µM (inactive)
GI50 (T47D): 34.9 µM (inactive)
GI50 (NCI/ADR-RES): 20.4 µM (inactive)

CC1OC(OCC2OC(Oc3ccc(C4CC(=O)c5c(O)cc(O)cc5O4)cc3O)C(O)C(O)C2O)C(O)C(O)C1O (stereo unspecified)
GI50 (HL-60): > 100 µM (inactive)
GI50 (NCI-H23): > 100 µM (inactive)
GI50 (NCI-H226): > 100 µM (inactive)
GI50 (COLO 205): > 100 µM (inactive)
GI50 (MCF7): > 100 µM (inactive)
GI50 (HCC 2998): > 100 µM (inactive)
GI50 (UACC-257): > 100 µM (inactive)
GI50 (LOX IMVI): > 100 µM (inactive)
GI50 (SF-295): > 100 µM (inactive)
GI50 (SNB-75): > 100 µM (inactive)
GI50 (BT-549): > 100 µM (inactive)
GI50 (TK-10): > 100 µM (inactive)
GI50 (A549): > 100 µM (inactive)
GI50 (UACC-62): > 100 µM (inactive)
GI50 (786-0): > 100 µM (inactive)
GI50 (DU-145): > 100 µM (inactive)
GI50 (KM12): > 100 µM (inactive)
GI50 (T47D): > 100 µM (inactive)
GI50 (NCI/ADR-RES): > 100 µM (inactive)
